The subject of assay [1] is androgen signaling signature in LNCaP cells. The assay can be described thus: GE-HTS androgen signaling signature assay / screen. Particulars: LNCaP, 1 nM R1881 plus compound ~20 μM, 24 hr; count of 3 replicates.
Another assay concerns celastrol signature. The assay can be described thus: Connectivity Map query with the celastrol signature. Format: cell-based, human. The arrangement: key to celastrol score (connectivity score): connectivity score, based on Kolmogorov-Smirnov statistic. Particulars: for celastrol score (connectivity score): enrichment of the celastrol signature (1.25 μM celastrol at 6 h, LNCaP) in the compound's Connectivity Map profiles, 6 hr treatment; for celastrol rank: rank by celastrol score among 164 Connectivity Map compounds. The gist of the method: (§1)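 LNCaP cells received celastrol 1.25 μM or gedunin 20 μM for 6 h. Each signature was scored by Kolmogorov–Smirnov-based connectivity against 453 build01 profiles, mostly 6 h treatments of MCF7 cells.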

The test system of another assay is gedunin signature. The assay can be described thus: Connectivity Map query with the gedunin signature. Format: cell-based, human. Particulars: for gedunin score (connectivity score): enrichment of the gedunin signature (20 μM gedunin at 6 hours, LNCaP) in the compound's Connectivity Map profiles, 6 hr treatment; for gedunin rank: rank by gedunin score among 164 Connectivity Map compounds. Details: key to gedunin score (connectivity score): connectivity score, based on Kolmogorov-Smirnov statistic. The gist of the method: as §1

On to methylnortichexanthone, for which, in assay [1], the “GE-HTS screen # replicates that score as the androgon deprived state (n = 3): KNN” value is recorded as 3, the “GE-HTS screen # replicates that score as the androgon deprived state (n = 3): Naïve Bayes classifier (P < 0.05)” value worked out at 2, the “GE-HTS screen # replicates that score as the androgon deprived state (n = 3): unweighted summed score (P < 0.05)” value turned out to be 2 and the “GE-HTS screen # replicates that score as the androgon deprived state (n = 3): weighted summed score (P < 0.05)” value came out at 2.
Consider `C=C/C(C)=C\CC1C(C)(O)CCC2C(C)(C)CCCC21C` (stereo not drawn) [abienol], for which, in assay [1], the “GE-HTS screen # replicates that score as the androgon deprived state (n = 3): KNN” value is 2, the “GE-HTS screen # replicates that score as the androgon deprived state (n = 3): Naïve Bayes classifier (P < 0.05)” value is listed as 1, the “GE-HTS screen # replicates that score as the androgon deprived state (n = 3): unweighted summed score (P < 0.05)” value stood at 3 and the “GE-HTS screen # replicates that score as the androgon deprived state (n = 3): weighted summed score (P < 0.05)” value is 3.
As for `O=C(/C=C/c1ccc(O)c(O)c1)c1ccc(O)cc1O` [butein], in the assay with celastrol signature, the “celastrol score (connectivity score)” value is 0.295. In addition, in the assay on gedunin signature, the “gedunin score (connectivity score)” value is recorded as 0.45.
`Oc1cc(O)c2c(c1)OC(c1ccc(O)c(O)c1)C(O)C2` (single isomer, unassigned; (-)) [(−)-catechin]: in the assay on celastrol signature, the “celastrol score (connectivity score)” value is recorded as 0 and the celastrol rank is recorded as 113. In the assay with gedunin signature, the “gedunin score (connectivity score)” value was determined as 0.457 and the gedunin rank is on record as 24.
As to `O=C(CCCCCCC(=O)Nc1ccccc1)NO` [vorinostat], the “celastrol score (connectivity score)” value in the assay on celastrol signature is 0. Besides, the “gedunin score (connectivity score)” value in the assay with gedunin signature turned out to be 0.554.
For `CSc1ccc(/C=C2/C(C)=C(CC(=O)O)c3cc(F)ccc32)cc1` [sulindac sulfide] the same measures were 0 and 0.
In the case of `[Cl][Co][Cl]` [cobalt chloride], in the assay on celastrol signature, the “celastrol score (connectivity score)” value amounted to 0.269 and the celastrol rank came to 48. In the assay on gedunin signature, the “gedunin score (connectivity score)” value came to 0.1 and the gedunin rank is given as 72.
Regarding `CN(C)CCC=C1c2ccccc2CCc2ccccc21` [amitriptyline], the “celastrol score (connectivity score)” value in the assay with celastrol signature is recorded as 0. Also, the “gedunin score (connectivity score)” value in the assay on gedunin signature was 0.
Take `CC(=O)Oc1ccccc1C(=O)O` [acetylsalicylic acid]: the “celastrol score (connectivity score)” value in the assay on celastrol signature was 0.154. The “gedunin score (connectivity score)” value in the assay with gedunin signature is on record as 0.
On to `Nc1c(O)cccc1C(=O)CC(N)C(=O)O` (racemic) [3-hydroxy-DL-kynurenine], for which, in the assay with celastrol signature, the “celastrol score (connectivity score)” value amounted to 0 and the celastrol rank turned out to be 136. In the assay with gedunin signature, the “gedunin score (connectivity score)” value was 0 and the gedunin rank is recorded as 96.
Regarding `O=c1[nH]c2ccccc2c2ccccc12` [phenanthridinone], in the assay on celastrol signature, the “celastrol score (connectivity score)” value was determined as 0.429 and the celastrol rank is recorded as 32. Besides, in the assay on gedunin signature, the “gedunin score (connectivity score)” value was −1 and the gedunin rank was found to be 164.
For the compound `Oc1ccc(C=Cc2cc(O)cc(O)c2)cc1` [resveratrol], in the assay with celastrol signature, the “celastrol score (connectivity score)” value was 0.266. Further, the “gedunin score (connectivity score)” value in the assay on gedunin signature came to 0.4.
As to `C/C(=C\c1ccc(C(=O)O)cc1)c1ccc2c(c1)C(C)(C)CCC2(C)C` [TTNPB], in the assay on celastrol signature, the “celastrol score (connectivity score)” value was determined as 0 and the celastrol rank is on record as 97. In the assay on gedunin signature, the “gedunin score (connectivity score)” value is 0.095 and the gedunin rank was determined as 74.
With `CCCNC(=O)NS(=O)(=O)c1ccc(Cl)cc1` [chlorpropamide], in the assay with celastrol signature, the “celastrol score (connectivity score)” value was 0. Besides, in the assay with gedunin signature, the “gedunin score (connectivity score)” value was 0.
Regarding `CN(C)C(=N)N=C(N)N` [metformin], the “celastrol score (connectivity score)” value in the assay on celastrol signature was −0.029. Moreover, the “gedunin score (connectivity score)” value in the assay on gedunin signature was −0.108.
In the same order, the values of `CC1(C)O[C@@H]2[C@@H](CO[C@@]3(COS(N)(=O)=O)OC(C)(C)O[C@@H]23)O1` [topiramate] are 0 and 0.
For `CCOC(=O)C1=C(C)NC(C)=C(C(=O)OC)C1c1cccc([N+](=O)[O-])c1` (stereo not drawn) [nitrendipine] the same measures were 0 and 0.
As for `CS(=O)(=O)c1ccc(-n2nc(C(F)(F)F)cc2-c2ccc(F)cc2)cc1` [SC-58125], the “celastrol score (connectivity score)” value with celastrol signature is recorded as −0.112. Also, the “gedunin score (connectivity score)” value with gedunin signature is listed as 0.09.
Turning to `CC[C@H]1/C=C/C=C/C[C@@H](C)[C@H](O)[C@@](C)(O)C(=O)[C@@H](C)[C@H](O)[C@@H](C)C(=O)[C@@H](C)[C@H](O)[C@@H](C)/C=C/C(=O)O[C@@H]2[C@H](C)[C@H](CC1)O[C@]1(CC[C@H](C)[C@H](C[C@@H](C)O)O1)[C@H]2C` [oligomycin], the “celastrol score (connectivity score)” value in the assay on celastrol signature is −0.491. The “gedunin score (connectivity score)” value with gedunin signature was 0.305.
In the same order, the values of `C[C@@H](N)[C@H]1CC[C@H](C(=O)Nc2ccncc2)CC1` [Y-27632] are 0 and −0.353.
Consider `CC(=O)c1c(O)c(C)c(O)c(Cc2c(O)c3c(c(C(=O)/C=C/c4ccccc4)c2O)OC(C)(C)C=C3)c1O` [rottlerin], for which, in the assay on celastrol signature, the “celastrol score (connectivity score)” value is 0.355. Besides, the “gedunin score (connectivity score)” value with gedunin signature is on record as 0.209.
Turning to `N#CC(=C(N)Sc1ccccc1)C(C#N)=C(N)Sc1ccccc1` [U0125], in the assay on celastrol signature, the “celastrol score (connectivity score)” value is 0 and the celastrol rank is 106. Besides, in the assay on gedunin signature, the “gedunin score (connectivity score)” value is given as 0 and the gedunin rank was 122.
Regarding `CS(=O)(=O)c1ccc(C2=C(c3ccccc3)C(=O)OC2)cc1` [rofecoxib], the “celastrol score (connectivity score)” value in the assay with celastrol signature turned out to be 0.088. Besides, the “gedunin score (connectivity score)” value in the assay with gedunin signature is 0.148.
For `CO[C@@H]1[C@@H](OC(N)=O)[C@@H](O)[C@H](Oc2ccc3c(O)c(NC(=O)c4ccc(O)c(CC=C(C)C)c4)c(=O)oc3c2C)OC1(C)C` [novobiocin] the same measures were 0.167 and 0.261.
In the same order, the values of `CCCCNC(=O)NS(=O)(=O)c1ccc(C)cc1` [tolbutamide] are 0.497 and 0.
In the same order, the values of `OCCN1CCN(CCCN2c3ccccc3Sc3ccc(C(F)(F)F)cc32)CC1` [fluphenazine] are 0.481 and 0.34.
Take `COC(=O)[C@@H]1[C@H]2C[C@H]3c4[nH]c5ccccc5c4CCN3C[C@@H]2CC[C@@H]1O` [yohimbine]: the “celastrol score (connectivity score)” value with celastrol signature was found to be 0. In addition, the “gedunin score (connectivity score)” value in the assay on gedunin signature turned out to be 0.
Consider `CC#CCC(C)[C@H](O)/C=C/[C@@H]1[C@H]2C/C(=C/CCCC(=O)O)C[C@H]2C[C@H]1O` (stereo partly drawn) [iloprost], for which, in the assay with celastrol signature, the “celastrol score (connectivity score)” value amounted to 0.098. In addition, the “gedunin score (connectivity score)” value in the assay on gedunin signature stood at 0.101.
Turning to `CC(=O)OCOC(c1ccc2ccccc2c1)P(=O)(OCOC(C)=O)OCOC(C)=O` (stereo not drawn) [HNMPA-(AM)3], in the assay on celastrol signature, the “celastrol score (connectivity score)” value amounted to 0 and the celastrol rank amounted to 103. In the assay on gedunin signature, the “gedunin score (connectivity score)” value came to 0.365 and the gedunin rank is on record as 36.
With `Clc1ccccc1C(c1ccccc1)(c1ccccc1)n1ccnc1` [clotrimazole], the “celastrol score (connectivity score)” value with celastrol signature was 0.557. Further, the “gedunin score (connectivity score)” value in the assay with gedunin signature is listed as 0.577.
In the same order, the values of `CCCC(CCC)C(=O)O` [valproic acid] are 0.086 and 0.136.
Regarding `O=c1c(O)c(-c2ccc(O)c(O)c2)oc2cc(O)ccc12` [fisetin], in the assay with celastrol signature, the “celastrol score (connectivity score)” value was 0. In addition, in the assay on gedunin signature, the “gedunin score (connectivity score)” value is listed as 0.
For `COc1cc2ncnc(Nc3cccc(Cl)c3)c2cc1OC` [tyrphostin AG-1478], in the assay with celastrol signature, the “celastrol score (connectivity score)” value is on record as 0 and the celastrol rank is 127. In the assay with gedunin signature, the “gedunin score (connectivity score)” value is recorded as 0.529 and the gedunin rank amounted to 14.
For ikarugamycin the same measures were 0.172, 59, 0 and 124.
With `C[C@H](CCC(=O)O)C[C@H](C)C[C@H](C)C(=O)/C=C(\O)[C@H](C)C[C@H](C)C/C=C/[C@@H](C)[C@@H](O)[C@@H](C)[C@@H](O)C[C@@H]1CC[C@@](C)([C@H]2CC[C@@](C)([C@@H](C)O)O2)O1` [ionomycin], the “celastrol score (connectivity score)” value with celastrol signature is listed as 0.556. Besides, the “gedunin score (connectivity score)” value in the assay with gedunin signature is listed as 0.129.
For `O=C(O)c1ccccc1Nc1cccc(C(F)(F)F)c1` [flufenamic acid] the same measures were 0 and 0.
As to `CN1CCN(CCCN2c3ccccc3Sc3ccc(Cl)cc32)CC1` [prochlorperazine], in the assay with celastrol signature, the “celastrol score (connectivity score)” value is recorded as 0.559. The “gedunin score (connectivity score)” value in the assay on gedunin signature came to 0.507.
Consider `C[C@H]1c2cccc(O)c2C(=O)C2=C(O)[C@]3(O)C(=O)C(C(N)=O)=C(O)[C@@H](N(C)C)[C@@H]3[C@@H](O)[C@@H]21` [doxycycline], for which the “celastrol score (connectivity score)” value in the assay with celastrol signature is reported as 0. For the same compound, the “gedunin score (connectivity score)” value in the assay with gedunin signature amounted to 0.
With `C[C@]12CC[C@@H]3c4ccc(O)cc4CC[C@H]3[C@@H]1CC[C@H]2O` [alpha-estradiol], in the assay on celastrol signature, the “celastrol score (connectivity score)” value is −0.066. The “gedunin score (connectivity score)” value in the assay with gedunin signature came to 0.045.
For `O=CC[C@@H](O)[C@H](O)[C@H](O)CO` [2-deoxy-D-glucose] the same measures were 0 and 0.378.

The values are drawn from patent publication US20110263693A1, “CELASTROL, GEDUNIN, AND DERIVATIVES THEREOF AS HSP90 INHIBITORS” (DANA-FARBER CANCER INSTITUTE, INC., priority 2006, published 2011).
